Data as given in the NIST ThermoML archive (doi:10.1021/je049540s).

Tests used:
[1] = xn = mol fraction of the nth substance listed; conditions: 308.15 K, 101.3 kPa, Liquid
[2] = activity coefficient (dimensionless); of the first substance listed, at infinite dilution; xn = mol fraction of the nth substance listed; conditions: 101.3 kPa, Liquid, Differential ebulliometry, x1 = 0

Cc1ccccc1O [2-methylphenol] + CCCCCCCCC
Conditions	activity coefficient	mass density [kg/m3]
[1], x1 = 0.0661	–	719.58
[1], x1 = 0.0684	–	720.02
[1], x1 = 0.1489	–	736.5
[1], x1 = 0.2085	–	749.6
[1], x1 = 0.2703	–	764.08
[1], x1 = 0.3994	–	797.32
[1], x1 = 0.4008	–	797.69
[1], x1 = 0.4688	–	817.04
[1], x1 = 0.5237	–	833.66
[1], x1 = 0.5941	–	856.51
[1], x1 = 0.6631	–	880.76
[1], x1 = 0.7323	–	906.98
[1], x1 = 0.8106	–	939.53
[1], x1 = 0.8674	–	965.12
[1], x1 = 0.9285	–	994.76
[1], x1 = 1	–	1032.73
[2], 373.15 K	5.84	–
[2], 393.15 K	4.58	–
[2], 413.15 K	3.8	–

Cc1ccccc1O [2-methylphenol] + CCCCCCCCCC
Conditions	activity coefficient	mass density [kg/m3]
[1], x1 = 0.0637	–	730.49
[1], x1 = 0.0908	–	735.2
[1], x1 = 0.162	–	748.33
[1], x1 = 0.2086	–	757.57
[1], x1 = 0.272	–	770.9
[1], x1 = 0.3186	–	781.32
[1], x1 = 0.4014	–	801.21
[1], x1 = 0.4707	–	819.47
[1], x1 = 0.529	–	836.06
[1], x1 = 0.6014	–	858.4
[1], x1 = 0.6596	–	878.02
[1], x1 = 0.7379	–	906.95
[1], x1 = 0.7876	–	927.04
[1], x1 = 0.8714	–	964.58
[1], x1 = 0.9348	–	996.28
[1], x1 = 0.9617	–	1010.78
[1], x1 = 1	–	1032.73
[2], 393.15 K	4.15	–
[2], 413.15 K	3.49	–
[2], 433.15 K	3.04	–

Cc1ccccc1O [2-methylphenol] + CCCCCCCCCCC
Conditions	activity coefficient, 393.15 K	activity coefficient, 413.15 K	activity coefficient, 433.15 K	mass density, x1 = 1 [kg/m3]
[1]	–	–	–	1032.73
[2]	4.47	3.77	2.85	–

Cc1cccc(O)c1 [3-methylphenol] + CCCCCCCCC
Conditions	activity coefficient	mass density [kg/m3]
[1], x1 = 0.1021	–	726.54
[1], x1 = 0.1998	–	747.24
[1], x1 = 0.302	–	770.94
[1], x1 = 0.4021	–	796.76
[1], x1 = 0.5	–	825
[1], x1 = 0.7	–	892.22
[1], x1 = 0.9	–	974.43
[1], x1 = 1	–	1022.02
[2], 373.15 K	9.21	–
[2], 393.15 K	7.06	–
[2], 413.15 K	5.96	–

Cc1cccc(O)c1 [3-methylphenol] + CCCCCCCCCC
[2]
Conditions	activity coefficient
373.15 K	7.79
403.15 K	5.37
433.15 K	4.26

Cc1cccc(O)c1 [3-methylphenol] + CCCCCCCCCCC
Conditions	activity coefficient	mass density [kg/m3]
[1], x1 = 0.1287	–	748.52
[1], x1 = 0.1853	–	758.11
[1], x1 = 0.3395	–	787.84
[1], x1 = 0.389	–	798.63
[1], x1 = 0.5024	–	826.11
[1], x1 = 0.6023	–	854.21
[1], x1 = 0.6949	–	884.19
[1], x1 = 0.8	–	923.73
[1], x1 = 0.9	–	968.61
[1], x1 = 1	–	1022.02
[2], 393.15 K	6.25	–
[2], 413.15 K	4.9	–
[2], 433.15 K	3.93	–

Cc1cccc(O)c1 [3-methylphenol] + CCCCCCCCCCCC
[1]
Conditions	mass density [kg/m3]
x1 = 0.1325	756.67
x1 = 0.2055	767.97
x1 = 0.3009	784.51
x1 = 0.4009	804.35
x1 = 0.6976	883.71
x1 = 0.7987	921.29
x1 = 0.895	963.9
x1 = 1	1022.02

CCCCCCCCCC [decane] + Cc1ccccc1O
Conditions	mass density [kg/m3]
[1], x2 = 0	720.24

CCCCCCCCCCCC [dodecane] + Cc1cccc(O)c1
Conditions	mass density [kg/m3]
[1], x2 = 0	738.63

CCCCCCCCC [nonane] + Cc1cccc(O)c1
Conditions	mass density [kg/m3]
[1], x2 = 0	707.41

CCCCCCCCC [nonane] + Cc1ccccc1O
Conditions	mass density [kg/m3]
[1], x2 = 0	707.41

CCCCCCCCCCC [undecane] + Cc1cccc(O)c1
Conditions	mass density [kg/m3]
[1], x2 = 0	729.13

CCCCCCCCCCC [undecane] + Cc1ccccc1O
[1]
Conditions	mass density [kg/m3]
x2 = 0	729.13
x2 = 0.0367	734.21
x2 = 0.0684	738.92
x2 = 0.0746	739.92
x2 = 0.1306	748.8
x2 = 0.2094	762.7
x2 = 0.2809	776.41
x2 = 0.3636	794.01
x2 = 0.4749	820.79
x2 = 0.5311	835.93
x2 = 0.5989	855.95
x2 = 0.6593	875.61
x2 = 0.7261	899.41
x2 = 0.8065	931.92
x2 = 0.8662	959.18
x2 = 0.9476	1001.43
